From US20260198495A1, “BINARY INSECTICIDE COMPOSITION AND USE THEREOF” (SHENYANG SINOCHEM AGROCHEMICALS R & D CO., LTD., priority 2022, published 2026)

Columns and labels:
Format in all cases: in vivo
[1] = test system: adult Tetranychus cinnabarinus (Boisduval); assay: Joint toxicity of I-72 + fenpropathrin, Example 39, Table 39; conditions: A = compound I-72, B = fenpropathrin, potted-seedling spraying, 72 hours, read-out: LC50
Description: Test target: adult Tetranychus cinnabarinus (Boisduval), a sensitive strain reared indoors.
(§1) Preparation of the pesticide solution: according to different test requirements, the test samples were accurately weighed respectively with an electronic analytical balance. The technical pesticides were dissolved in acetone, and then diluted with 0.1% Tween 80 water into a series of pesticide solutions with a certain concentration gradient according to the experimental design dosage.
Experimental method: the activity of the mixture against the adult Tetranychus cinnabarinus (Boisduval) was determined by adopting the potted-seedling spraying method. First, the adult Tetranychus cinnabarinus of uniform size were transferred onto the leaves of kidney bean seedlings at the stage when the first pair of true leaves was fully expanded. After the adult mites had stabilized, the base number was counted. Then, the uniform spraying was performed with the pesticide solution in the order from low to high dose according to the experimental design, with 1.5 mL for each seedling and 3 replicates for each treatment. […]
(§2) The treated test materials were placed in an observation room, and the temperature, humidity and illumination of the observation room could be adjusted as needed. […] Then, the co-toxicity coefficient of each ratio was calculated using the Sun Y-P method to evaluate the mixing effect, as in Example 1.

[2] = test system: 2nd-instar nymphs of Frankliniella occidentalis Pergande; assay: Joint toxicity of I-72 + carbosulfan, leaf spraying, Example 22, Table 22; conditions: 2nd-instar nymphs, kidney bean leaf spraying, 48 h, A = compound I-72, B = carbosulfan, read-out: LC50
Description: Test subject: 2nd-instar nymphs of Frankliniella occidentalis Pergande, a sensitive strain reared indoors.
as §1, with “samples in Table 1” for “samples”
Test conditions: temperature: 25-27° C., humidity: RH 60%, and illumination: L:D=14:10
Experimental method: the spraying method was adopted. The kidney bean leaves cultivated in the greenhouse were selected, and the petioles were wrapped with moist degreased cotton and sealing film. They were evenly sprayed with the pesticide solution in the order from low dosage to high dosage according to the experimental design, placed in a 6-cm-diameter Petri dish with filter paper. After natural air-drying in the shade, the test insects were introduced, with 20 insects for each treatment and 3 replicates. In addition, a blank control was set up. […] The corrected mortality rate was calculated using the Abbott's formula, and the DPS data processing software was used for statistical analysis to calculate the toxicities (LC50 values) of the single test pesticides and the mixtures under the test ratios. […]

[3] = test system: Nilaparvata lugens (Stal) nymphs; assay: Joint toxicity of I-72 + buprofezin, Example 52, Table 52; conditions: A = compound I-72, B = buprofezin, potted-seedling spraying, 72 hours, read-out: LC50
Description: Test target: Nilaparvata lugens (Stal) nymphs, a sensitive strain reared indoors.
as §1
Experimental method: the activity of the mixture against the Nilaparvata lugens (Stal) nymphs was determined by adopting the potted-seedling spraying method. First, rice seedlings were planted in culture pots. Uniform spraying was performed with the pesticide solution in the order from low dosage to high dosage according to the experimental design, with 2 mL for each seedling. Then, Nilaparvata lugens nymphs of uniform size were transferred onto the rice seedlings, with 3 replicates for each treatment. In addition, a blank control was set up.
as §2, with “needed. The number of dead and live insects was investigated 72 hours later.” for “needed.”

[4] = test system: 3rd-instar larvae of Chilo suppressalis (Walker); assay: Joint toxicity of I-72 + methoxyfenozide, Example 53, Table 53; conditions: A = compound I-72, B = methoxyfenozide, rice stem dipping, 72 hours, read-out: LC50
Description: Test target: 3rd-instar larvae of Chilo suppressalis (Walker).
as §1
(§3) Experimental method: first, tender rice stems were selected and dipped in the prepared pesticide solution for 10 s in the order from low dosage to high dosage according to the experimental design. After natural air-drying in the shade, they were placed in a 9-cm-diameter Petri dish with filter paper, and uniform and healthy test insects were introduced, with 10 insects for each treatment and 3 replicates for each treatment. In addition, a blank control was set up.
as §2, with “needed. The number of dead and live insects was investigated 72 hours later.” for “needed.”, “effect (the same” for “effect,”, “1).” for “1.”

[5] = test system: adult Bemisia tabaci (Gennadius); assay: Joint toxicity of I-72 + abamectin, seedling spraying, Example 13, Table 13; conditions: Bemisia tabaci; adults, kidney bean seedling spraying, 72 h; A = compound I-72, B = abamectin; read-out: LC50
Excerpt: Test subject: adult Bemisia tabaci (Gennadius), a sensitive strain reared indoors.
Experimental method: the spraying method was adopted. The kidney bean seedlings cultivated in the greenhouse were selected and evenly sprayed with the pesticide solution in the order from low dosage to high dosage according to the experimental design. After natural air-drying in the shade, a self-made glass cover was put on, and the test insects were introduced, with 20-30 insects for each treatment and 3 replicates. In addition, a blank control was set up. The number of dead and live insects was investigated 72 hours later. The corrected mortality rate was calculated using the Abbott's formula, and the DPS data processing software was used for statistical analysis to calculate the toxicities (LC50 values) of the single test pesticides and the mixtures under the test ratios.
The test conditions, the preparation of the pesticide solution and the evaluation method were the same as those in Example 1.
The test subject, the test method, the test conditions, the preparation of the pesticide solution and the evaluation method were the same as those in Example 12.

[6] = test system: 3-instar larvae of Ostrinia furnacnlis Guenee; assay: Joint toxicity of I-72 + flubendiamide, Example 61, Table 61; conditions: A = compound I-72, B = flubendiamide, corn stem dipping, 72 hours, read-out: LC50
Description: Test target: 3-instar larvae of Ostrinia furnacnlis Guenee.
as §1
as §3, with “corn” for “rice”
as §2, with “needed. The number of dead and live insects was investigated 72 hours later.” for “needed.”, “effect (the same” for “effect,”, “1).” for “1.”

How did the LC50 [1] turn out when `CN(C(=O)c1ccc2c(c1)OC(F)(F)O2)c1cccc(C(=O)Nc2c(Br)cc(C(F)(C(F)(F)F)C(F)(F)F)cc2OC(F)F)c1F` [Compound I-72] was run?
Its LC50 is 34.1 µg/mL.

And the LC50 [2]?
The LC50 was 2.15 µg/mL.

What about the LC50 [3] of the same molecule?
Its LC50 is 253 µg/mL.

What about the LC50 [4] of the same molecule?
The LC50 was 1.02 µg/mL.

And the LC50 [5]?
The LC50 was 2.97 µg/mL.

What about the LC50 [6] of the same molecule?
Its LC50 is 0.804 µg/mL.
